# Measured values as given in patent US9850245B2 (Merck Sharp & Dohme Corp., priority 2014, dated 2017).
# Assays:
# ROMK = ROMK (Homo sapiens (Human), UniProt P48048); test: Thallium Flux Assay; format: cell-based
# Description: A Thallium Flux Assay was performed on the compounds of the Examples. This assay has been described previously; see, e.g., PCT Published Application WO 2013/062900.
# Kir1.1 (ROMK1) = Kir1.1 (ROMK1) (Homo sapiens (Human), UniProt P48048); test: Electrophysiology Assay (whole cell voltage clamp, IonWorks Quattro); format: cell-based; settings: Chinese hamster ovary cells stably expressing Kir1.1; fractional block at voltage step to 0 mV; 6 min compound incubation
# Chain of Kir1.1 (ROMK1) (P48048 whole entry): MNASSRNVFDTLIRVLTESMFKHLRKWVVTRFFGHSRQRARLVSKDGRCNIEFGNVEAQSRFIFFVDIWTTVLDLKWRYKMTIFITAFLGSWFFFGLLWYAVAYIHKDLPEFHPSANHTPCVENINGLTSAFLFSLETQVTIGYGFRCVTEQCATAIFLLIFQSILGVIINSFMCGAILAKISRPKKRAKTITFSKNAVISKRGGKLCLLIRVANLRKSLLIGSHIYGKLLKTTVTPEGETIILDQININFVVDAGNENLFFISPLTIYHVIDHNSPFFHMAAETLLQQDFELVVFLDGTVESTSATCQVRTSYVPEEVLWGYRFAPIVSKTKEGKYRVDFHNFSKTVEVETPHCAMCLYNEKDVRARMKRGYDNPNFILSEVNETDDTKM
# Description: Blocking of Kir1.1 (ROMK1) currents was examined by whole cell voltage clamp (Hamill et. al. Pfluegers Archives 391:85-100 (1981)) using the IonWorks Quattro automated electrophysiology platform (Molecular Devices, Sunnyvale, Calif.). Chinese hamster ovary cells stably expressing Kir1.1 channels were maintained in T-75 flasks in cell culture media in a humidified 10% CO2 incubator at 37° C. Prior to an experiment, Kir1.1 expression was induced by overnight incubation with 1 mM sodium butyrate. On the day of the experiment, cells were dissociated with 2.5 mL of Versene (Invitrogen 15040-066), a non-enzymatic cell dissociation reagent, for approximately 6 min at 37° C. and suspended in 10 mL of bath solution containing (in mM): 150 NaCl, 10 KCl, 2.7 CaCl2, 0.5 MgCl2, and 5 HEPES, at pH 7.4. After centrifugation, the cell pellet was resuspended in approximately 4.0 mL of bath solution and placed in the IonWorks instrument. The intracellular solution consisted of (in mM): 80 K gluconate, 40 KCl, 20 KF, 3.2 MgCl2, 3 EGTA, and 5 Hepes, at pH 7.4. Electrical access to the cytoplasm was achieved by perforation in 0.13 mg/mL amphotericin B for 4 min. Amphotericin B (Sigma A-4888) was prepared as a 40 mg/mL solution in DMSO.
# Voltage protocols and current recordings were performed using the IonWorks HT software/hardware system. Currents were sampled at 1 kHz. There was no correction for liquid junction potentials. The test pulse, consisting of a 100 ms (millisecond) step to 0 mV (millivolts) from a holding potential of −70 mV, followed by a 100 ms voltage ramp from −70 mV to +70 mV, was applied before and after a 6 min compound incubation period. Test compounds were prepared by diluting DMSO stock solutions into the bath solution at 3× the final concentration and placed in the instrument in 96-well polypropylene plates. Current amplitudes were measured using the IonWorks software. To assess compound potency, the fractional block during the voltage step to 0 mV was calculated in Microsoft Excel (Microsoft, Redmond, Calif.), and dose-response curves were fitted with Igor Pro 4.0 (WaveMetrics, Lake Oswego, Oreg.).
# Chain of ROMK (P48048 whole entry): as above
SMILES,IC50 (ROMK) [nM],IC50 (Kir1.1 (ROMK1)) [nM]
"CC1=C(N2CCOC3(CCN(CC(O)c4ccc(-n5cnnn5)nc4C)CC3)C2)COC1=O (single isomer, unassigned) [Example 22A, 4-(9-(2-hydroxy-2-(2-methyl-6-(1H-tetrazol-1-yl)pyridin-3-yl)ethyl)-1-oxa-4,9-diazaspiro[5.5]undecan-4-yl)-3-methylfuran-2(5H)-one]",34,11
"CC1=C(N2CCN(C)C3(CCN(C[C@H](O)c4ccc5c(c4C)COC5=O)CC3)C2=O)COC1=O [Example 34, (R)-9-(2-hydroxy-2-(4-methyl-1-oxo-1,3-dihydroisobenzofuran-5-yl)ethyl)-1-methyl-4-(4-methyl-5-oxo-2,5-dihydrofuran-3-yl)-1,4,9-triazaspiro[5.5]undecan-5-one]",42.3,27
CC1=C(N2CCOC3(CCN(CCc4ccc(-n5cnnn5)cn4)CC3)C2)COC1=O [Example 50],57.6,16
"CC1=C(N2CCOC3(CCN(CC(O)c4cnc(-n5cnnn5)nc4)CC3)C2=O)COC1=O (single isomer, unassigned) [Example 46A, 9-(2-(2-(1H-tetrazol-1-yl)pyrimidin-5-yl)-2-hydroxyethyl)-4-(4-methyl-5-oxo-2,5-dihydrofuran-3-yl)-1-oxa-4,9-diazaspiro[5.5]undecan-5-one]",56,51
"CC1=C(N2CCOC3(CCN(CCc4ccc(-n5cnnn5)nn4)CC3)C2=O)COC1=O [Example 51, 9-(2-(6-(1H-tetrazol-1-yl)pyridazin-3-yl)ethyl)-4-(4-methyl-5-oxo-2,5-dihydrofuran-3-yl)-1-oxa-4,9-diazaspiro[5.5]undecan-5-one]",26.8,7.3
"O=C1C=C(N2CCOC3(CCN(C[C@H](O)c4ccc(-n5cnnn5)nc4)CC3)C2)CO1 [Example 19A, (R)-4-(9-(2-(6-(1H-tetrazol-1-yl)pyridin-3-yl)-2-hydroxyethyl)-1-oxa-4,9-diazaspiro[5.5]undecan-4-yl)furan-2(5H)-one]",80.6,56
"Cc1nc(-n2cnnn2)ccc1C(O)CN1CCC2(CC1)CN(C1=CC(=O)OC1)CCO2 (single isomer, unassigned) [Example 20A, 4-(9-(2-hydroxy-2-(2-methyl-6-(1H-tetrazol-1-yl)pyridin-3-yl)ethyl)-1-oxa-4,9-diazaspiro[5.5]undecan-4-yl)furan-2(5H)-one]",61.5,37
"CC1=C(N2CCNC3(CCN(CC(O)c4ccc(-n5cnnn5)nc4C)CC3)C2=O)COC1=O (single isomer, unassigned) [Example 2A, 9-(2-hydroxy-2-(2-methyl-6-(1H-tetrazol-1-yl)pyridin-3-yl)ethyl)-4-(4-methyl-5-oxo-2,5-dihydrofuran-3-yl)-1,4,9-triazaspiro[5.5]undecan-5-one]",36.5,26
"CC1=C(N2CCOC3(CCN(C[C@H](O)c4ccc5c(c4C)COC5=O)CC3)C2)COC1=O [Example 21, (R)-5-(1-hydroxy-2-(4-(4-methyl-5-oxo-2,5-dihydrofuran-3-yl)-1-oxa-4,9-diazaspiro[5.5]undecan-9-yl)ethyl)-4-methylisobenzofuran-1(3H)-one]",171,77
"CC1=C(N2CCNC3(CCN(C[C@H](O)c4ccc(-n5cnnn5)nc4)CC3)C2=O)COC1=O [Example 4A, (R)-9-(2-(6-(1H-tetrazol-1-yl)pyridin-3-yl)-2-hydroxyethyl)-4-(4-methyl-5-oxo-2,5-dihydrofuran-3-yl)-1,4,9-triazaspiro[5.5]undecan-5-one]",38.2,46
"CC1=C(N2CCOC3(CCN(C[C@@H](O)c4ccc(-n5cnnn5)nc4)CC3)C2=O)COC1=O [Example 6B, (S)-9-(2-(6-(1H-tetrazol-1-yl)pyridin-3-yl)-2-hydroxyethyl)-4-(4-methyl-5-oxo-2,5-dihydrofuran-3-yl)-1-oxa-4,9-diazaspiro[5.5]undecan-5-one]",12.1,3.8
